# Measured values from publication PMC6934184, “Selective DNA-PKcs inhibition extends the therapeutic index of localized radiotherapy and chemotherapy” (The Journal of Clinical Investigation, 2019).
# Molecular target: T1, CAMK4 (CaMKIV) (Homo sapiens, UniProt Q16566)
# T1 construct: purchased Thermo Fisher Scientific (Life Technologies) SelectScreen
# Assay: SelectScreen Z'LYTE
# Assay type: biochemical
# Procedure, shortened: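 SelectScreen broad panel; activity (Z'LYTE, Adapta) plus binding formats. ATP: Km app for CSF1R Z'LYTE; 10 for CAMK1 Adapta. Readout = % per kinase.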
# T1 sequence (Q16566 whole entry): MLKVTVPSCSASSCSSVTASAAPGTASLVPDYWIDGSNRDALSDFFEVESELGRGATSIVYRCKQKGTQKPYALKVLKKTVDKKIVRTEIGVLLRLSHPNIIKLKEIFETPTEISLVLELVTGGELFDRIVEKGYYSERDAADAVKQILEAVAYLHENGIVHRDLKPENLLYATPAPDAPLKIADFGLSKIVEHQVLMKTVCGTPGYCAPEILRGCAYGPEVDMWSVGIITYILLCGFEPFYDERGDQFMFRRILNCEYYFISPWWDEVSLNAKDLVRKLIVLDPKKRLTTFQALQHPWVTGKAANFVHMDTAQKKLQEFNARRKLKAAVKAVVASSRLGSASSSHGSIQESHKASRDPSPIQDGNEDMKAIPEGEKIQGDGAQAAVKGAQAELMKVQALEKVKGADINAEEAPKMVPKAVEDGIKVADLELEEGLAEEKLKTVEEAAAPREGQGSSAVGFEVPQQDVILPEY
smiles,measurement,value
CN(C(=O)CN1CCOCC1)c1ccc2sc3c(-c4cccc5c(=O)cc(N6CC7CCC(C6)O7)oc45)cccc3c2c1 [NU5455],inhibition at 1 µM,-10.4%
